Assay results from patent US20100069451A1, “SALT OF 3-BENZYL-2-METHYL-2,3,3A,4,5,6,7, 7A- OCTAHYDROBENZO[D]ISOXAZOL-4-ONE” (ABIOGEN PHARMA S.P.A, priority 2006, published 2010).
Structures can show the parent of a compound that is named as a salt. Where two headings read alike, the source gives them in different places.

Tests used:
[1] = Stability test of BTG 1640 salts under storage conditions: purity; format: physicochemical; details: for Purity %: time 0 (months)
Experimental: Samples of 100 mg each of BTG 1640 hydrochloride were subjected to the following preservation conditions:
The purities were then analyzed periodically, initially every three months, in order to underline possible variations.
Samples of 100 mg each of BTG 1640 oxalate prepared according to example 1B were subjected to the following preservation conditions:
Quarterly and in an overall period of nine months its purity was then analyzed in order to point out possible variations.
The stabilities were then evaluated by subjecting samples of 100 mg of each salt to the following analogous preservation conditions:
Quarterly and in an overall period of nine months their purity was then analyzed in order to underline possible variations.

[2] = Absorption kinetic after oral administration: plasma concentration of BTG 1640; format: in vivo, rats Sprague Dawley; details: rat
Experimental: Absorption extent and rate of molecule BTG 1640 in its forms of oxalate and hydrochloride salts were evaluated.
With this intent, the two salts were dispersed in an aqueous suspension of arabic gum at 5% thus obtaining two formulations, each one orally administered through oesophageous gavage at dose of 10 mg/kg (expressed as free base of BTG 1640) to five rats Sprague Dawley.
Plasma concentration of molecule BTG 1640 was determined at different time points (see Table 7).

[3] = tested on: female CD-1 mice; test: Acute oral toxicity; format: in vivo; details: for Clinical signs / Histopathological examination of kidneys: female CD-1 mice
Experimental: Acute oral toxicity of salts hydrochloride and oxalate of BTG-1640 was evaluated.
The two salts were dispersed in an aqueous suspension, thus obtaining two formulations, each one orally administered through oesophageous gavage at dose of 2000 mg/kg bw (expressed as free base of BTG 1640) to one of two groups comprising three female CD-1 mice per group.
The observation lasted 14 days.

[4] = Stability test of BTG 1640 salts under storage conditions: total impurities; format: physicochemical; details: for Impurity profile (in words): condition d): 40° C./75% RH
Experimental: Contemporaneously, the impurity analysis in the conditions a)-d) of T/% RH were carried out.
As a confirmation of such evidence, a test for the evaluation of the impurity percentage of the sample subjected to the same conditions a)-d) of T/% RH was parallely carried out. The experimental values in Table 4 were obtained.

[5] = condition d): 40° C./75% RH, up to six months
[6] = 2000 mg/kg bw oral (as free base)
[7] = T = 25° C., humidity 60% RH, time 0 (months)
[8] = T = 30° C., humidity 65% RH, time 0 (months)
[9] = T = 40° C., humidity 75% RH, time 0 (months)
[10] = Sprague Dawley, in vivo, po, 10 mg/kg

Structure (SMILES) | Stability (in words) [1, 5] | Clinical signs [3, 6] | Histopathological examination of kidneys [3, 6] | % impurities ([4]; T = 5° C., time 0 (months)) | % impurities [4, 7] | % impurities [4, 8] | % impurities [4, 9] | Impurity profile (in words) [4] | Stability compared with BTG 1640 hydrochloride (in words) ([1]; conditions a)-d)) | also measured
CN1OC2CCCC(=O)C2C1Cc1ccccc1.Cl (stereo not drawn) [BTG 1640 hydrochloride, reference compound] | strong instability | Lethargy, ataxia, aggressiveness and vocalization | small foci of acute tubular necrosis in the cortex, balloon degeneration of the epithelium and dilatation of convoluted tubules | 0.36% | 0.36% | 0.36% | 0.36% | unacceptable percentage of impurities |  | Stability (in words) ([1]; conditions a)-c): 5° C., 25° C./60% RH, 30° C./65% RH, 12 months): good stability; Validity time period ([1]; indicated on the basis of the stability results, preserved at 2-8° C.): 12 months; BTG 1640 free base concentration in plasma ([2]; oral gavage 10 mg/kg (as free base), 5% arabic gum suspension, 300 minutes): 0 µg/mL; Lethality ([3]; 2000 mg/kg bw oral (as free base), three female CD-1 mice, 14 days observation): lethal in two animals out of three
CN1OC2CCCC(=O)C2C1Cc1ccccc1.O=C(O)/C=C\C(=O)O (stereo not drawn) [BTG 1640 maleate] | degrades in unacceptable way |  |  |  | 0.23% | 0.23% |  |  | even worse | Stability (in words) ([1]; condition c) 30° C./65% RH, at sixth month): considerable degradation; Stability (in words) ([1]; conditions a) and b)): acceptable profile
CN1OC2CCCC(=O)C2C1Cc1ccccc1.CS(=O)(=O)O (stereo not drawn) [BTG 1640 methanesulphonate] |  |  |  |  | 0.42% | 0.42% |  |  | even worse | Stability (in words) ([1]; conditions b)-d)): begins to degrade already after three months
CN1OC2CCCC(=O)C2C1Cc1ccccc1 [BTG 1640 oxalate, oxalate salt of rel-(3R,3aS,7aS)-3-benzyl-2-methyl-2,3,3a,4,5,6,7,7a-octahydrobenzo[d]isoxazol-4-one] |  | quickly reversible neurological signs | focal and moderate balloon degeneration of the epithelium in convoluted tubules | 0.27% | 0.27% | 0.27% | 0.27% | invariable impurity profile |  | Stability compared with BTG 1640 hydrochloride (in words) [1]: higher stability; Purity % ([1]; T = 5° C.): 99.7%; Purity % ([1]; T = 25° C., humidity 60% RH): 99.7%; Purity % ([1]; T = 30° C., humidity 65% RH): 99.7%; Purity % ([1]; T = 40° C., humidity 75% RH): 99.7%; concentration at 2 minutes [2, 10]: 2050 ng/mL; concentration at 5 minutes [2, 10]: 1870 ng/mL; concentration at 30 minutes [2, 10]: 390 ng/mL; concentration at 300 minutes [2, 10]: 0 ng/mL; Absorption compared with hydrochloride (in words) ([2]; in vivo, po, 10 mg/kg): higher absorption; Toxicity compared with hydrochloride (in words) ([3]; 2000 mg/kg bw oral, female mice): less toxic; % impurities ([4]; T = 5° C., time 3 (months)): 0.33%; % impurities ([4]; T = 5° C., time 9 (months)): 0.29%; % impurities ([4]; T = 25° C., humidity 60% RH, time 3 (months)): 0.30%; % impurities ([4]; T = 30° C., humidity 65% RH, time 3 (months)): 0.28%
CN1OC2CCCC(=O)C2C1Cc1ccccc1.O=C(O)CCC(=O)O (stereo not drawn) [BTG 1640 succinate] |  |  |  |  | 0.77% | 0.77% |  |  | even worse | Stability (in words) ([1]; all observation conditions a)-d), from the third month): shows degradation
